{
  "source": "patent EP3861981B1",
  "about": "“NOVEL SERTACONAZOLE COMPOSITIONS” (Dr. Pfleger Arzneimittel GmbH, priority 2020, dated 2021)",
  "type_in_all_cases": "physicochemical",
  "key": {"[1]": {"assay": "Example 1: solubility of sertaconazole nitrate in solvents, macroscopic", "protocol": "Mixtures of 2 wt.-% sertaconazole nitrate and 98 wt.-% of solvents were prepared and shaken for 24 h at 150 rpm and at room temperature. Subsequently, the samples were macroscopically examined by evaluating the amount and appearance of the sediment."}, "[2]": {"assay": "Example 2: solubility of sertaconazole nitrate in solubilizers, macroscopic", "protocol": "Mixtures of 2 wt.-% sertaconazole nitrate and 98 wt.-% of solubilizers were prepared and shaken for 24 h at 150 rpm and at room temperature. Subsequently, the samples were macroscopically examined by evaluating the amount and appearance of the sediment."}, "[3]": {"assay": "Example 3: solubility of sertaconazole nitrate in mixtures of solvent and solubilizer", "protocol": "Mixtures of 2 wt.-% sertaconazole nitrate and 98 wt.-% of a mixture of solvent and solubilizers (the amount of solubilizer with respect to the total mixture of sertaconazole nitrate, solvent and solubilizer is indicated in the subsequent table) were prepared and shaken for 24 h at 150 rpm and at room temperature. Subsequently, the samples were macroscopically examined by evaluating the amount and appearance of the sediment."}},
  "data": [
    {"smiles": "Clc1ccc(C(Cn2ccnc2)OCc2csc3c(Cl)cccc23)c(Cl)c1", "note": "(centres unmarked) [sertaconazole nitrate]", "values": [
      {"measurement": "solubility", "setting": "[1]; 2 wt.-% in 98 wt.-% solvent, 24 h, room temperature, trend over water, butyl acetate, ethyl acetate, isopropanol, ethanol", "result": "Increasing from water to ethanol"},
      {"measurement": "appearance", "setting": "[1]; Ethanol", "result": "Low, crystalline sediment"},
      {"measurement": "appearance", "setting": "[1]; Water", "result": "Not dissolved, powdery, white sediment"},
      {"measurement": "sediment", "setting": "[1]; trend over water, butyl acetate, ethyl acetate, isopropanol, ethanol", "result": "Decreasing from water to etanol"},
      {"measurement": "solubility", "setting": "[2]; 2 wt.-% in 98 wt.-% solubilizer, 24 h, room temperature, trend from dimethylphthalate to macrogol 400", "result": "Increasing from dimethylphthalate to macrogol 400"},
      {"measurement": "appearance", "setting": "[2]; Dimethylphthalate", "result": "Milky mixture with sediment"},
      {"measurement": "appearance", "setting": "[2]; Glycerine (cell below, Marcogol 300, empty, possibly merged)", "result": "Clear solution with sediment"},
      {"measurement": "appearance", "setting": "[2]; Polyglycol M350 (cells below, propylene glycol, transcutol, macrogol 400, empty, possibly merged)", "result": "Dissolved"},
      {"measurement": "amount and appearance of the sediment", "setting": "[3]; Butyl acetate + Macrogol 400 10-30 wt.-%", "result": "Sediment, no change observed by increasing amount of macrogol 400"},
      {"measurement": "amount and appearance of the sediment", "setting": "[3]; Butyl acetate + Polyglycol M350 10-30 wt.-%", "result": "White powdery sediment, no change observed by increas-ing amount of polyglycol M350"},
      {"measurement": "amount and appearance of the sediment", "setting": "[3]; Butyl acetate + Propylene glycol 10-30 wt.-%", "result": "Clear decrease of sediment with increase of propylene gly-col"},
      {"measurement": "amount and appearance of the sediment", "setting": "[3]; Butyl acetate + Transcutol 10-30 wt.-%", "result": "Sediment, no change observed by increasing amount of transcutol"},
      {"measurement": "amount and appearance of the sediment", "setting": "[3]; Butyl acetate + Water 10-30 wt.-%", "result": "Sediment (partially powdery white), increase of sediment with increasing amount of water"},
      {"measurement": "amount and appearance of the sediment", "setting": "[3]; Ethanol + Dimethylphthalate 10-30 wt.-%", "result": "Sediment (slightly crystalline), minimal decrease of sedi-ment with increasing of amount of dimethylphthalate"},
      {"measurement": "amount and appearance of the sediment", "setting": "[3]; Ethanol + Macrogol 400 10 wt.-%", "result": "Minimal crystal-line sediment"},
      {"measurement": "amount and appearance of the sediment", "setting": "[3]; Ethanol + Macrogol 400 20 wt.-%", "result": "clear"},
      {"measurement": "amount and appearance of the sediment", "setting": "[3]; Ethanol + Macrogol 400 30 wt.-%", "result": "clear"},
      {"measurement": "amount and appearance of the sediment", "setting": "[3]; Ethanol + Polyglycol M350 10 wt.-%", "result": "Minimal crystal-line sediment"},
      {"measurement": "amount and appearance of the sediment", "setting": "[3]; Ethanol + Polyglycol M350 20 wt.-%", "result": "clear"},
      {"measurement": "amount and appearance of the sediment", "setting": "[3]; Ethanol + Polyglycol M350 30 wt.-%", "result": "clear"},
      {"measurement": "amount and appearance of the sediment", "setting": "[3]; Ethanol + Propylene glycol 10-30 wt.-%", "result": "Minimal crystalline sediment, decrease of sediment with increase of amount of propylene glycol"},
      {"measurement": "amount and appearance of the sediment", "setting": "[3]; Ethanol + Transcutol 10-30 wt.-%", "result": "Minimal crystalline sediment, decrease of sediment with increase of amount of transcutol"},
      {"measurement": "amount and appearance of the sediment", "setting": "[3]; Ethanol + Water 10-30 wt.-%", "result": "Sediment (powdery/crystalline), no change observed by in-creasing amount of water"},
      {"measurement": "amount and appearance of the sediment", "setting": "[3]; Ethyl acetate + Dimethylphthalate 10-30 wt.-%", "result": "Crystalline sediment, better solubility than pure ethyl ace-tate"},
      {"measurement": "amount and appearance of the sediment", "setting": "[3]; Ethyl acetate + Macrogol 400 10-30 wt.-%", "result": "Crystalline sediment, minimal decrease of sediment with increase of amount of macrogol 400"},
      {"measurement": "amount and appearance of the sediment", "setting": "[3]; Ethyl acetate + Polyglycol M350 10-30 wt.-%", "result": "White, powdery sediment, no change observed by in-crease of amount of polyglycol M350"},
      {"measurement": "amount and appearance of the sediment", "setting": "[3]; Ethyl acetate + Propylene glycol 10-20 wt.-%", "result": "Decrease of crystalline sediment with increase of amount of propylene gly-col"},
      {"measurement": "amount and appearance of the sediment", "setting": "[3]; Ethyl acetate + Propylene glycol 30 wt.-%", "result": "Clear"},
      {"measurement": "amount and appearance of the sediment", "setting": "[3]; Ethyl acetate + Transcutol 10-30 wt.-%", "result": "Powdery/crystalline sediment, no change observed by in-crease of amount of transcutol"},
      {"measurement": "amount and appearance of the sediment", "setting": "[3]; Ethyl acetate + Water 10-30 wt.-%", "result": "Sediment (partially powdery white), increase of sediment with increasing amount of water"},
      {"measurement": "amount and appearance of the sediment", "setting": "[3]; Isopropanol + Macrogol 400 10-30 wt.-%", "result": "Crystalline sediment, no change observed by increasing amount of macrogol 400"},
      {"measurement": "amount and appearance of the sediment", "setting": "[3]; Isopropanol + Polyglycol M350 10-30 wt.-%", "result": "White sediment, clear decrease of sediment with increas-ing amount of polyglycol M350"},
      {"measurement": "amount and appearance of the sediment", "setting": "[3]; Isopropanol + Propylene glycol 10-30 wt.-%", "result": "Crystalline sediment, no change observed by increasing amount of propylene glycol"},
      {"measurement": "amount and appearance of the sediment", "setting": "[3]; Isopropanol + Transcutol 10-30 wt.-%", "result": "Crystalline sediment, no change observed by increasing amount of transcutol"},
      {"measurement": "amount and appearance of the sediment", "setting": "[3]; Isopropanol + Water 10-30 wt.-%", "result": "White powdery sediment, no change observed by increas-ing amount of water"}
    ]}
  ]
}
